In patent US20210330606A1, “GLUCOSE CONSUMPTION ACCELERATOR AND GLYCOLYSIS ACCELERATOR” (SHINKO SANGYO Co., Ltd., priority 2018, published 2021):
Several values for one entry are separate records, joined by “and”; a condition that tells them apart may be missing. Equal entries are not always repeated.

Tests used:
[1] = test system: Py-3Y1-S2, TE-13, VERO and HepG2 cells; test: Lactate concentration after 2 to 3 days culture, lactate metabolism, mean over four cell types (Example 9); format: cell-based, rat, human, African green monkey; settings: drug 0.5 mg/ml, 2 to 3 days (48 to 72 hours) culture, mean of four experiments
Method: (§1) After the addition of the drug, the culture solution was diluted so that the weight ratio of the culture solution to distilled water was 1:19, and the lactate concentration of the diluted culture solution was measured. The lactate concentration was measured using a lactate assay kit (product name: Lactate Assay Kit-WST, product of Dojindo Laboratories).
First, samples of 2-amino-1-cyclohexylethanol (2-amino-1-cyclohexyl EOH) and 2-amino-1-phenylethanol (2-amino-1-phenyl EOH) were prepared in the same manner as in Example 1. Four types of cells were used as in Example 8, and each of the cells was cultured under the same conditions as in Example 1. […] Thereafter, the culture time was lengthened to 2 to 3 days (48 to 72 hours) compared to Example 8. As a control 1, the culture was performed in the same manner except that distilled water to which the drug was not added was added to the culture solution instead of the sample. As a control 2, the culture was performed in the same manner as the […] except that a sample of biguanide prepared in the same manner as in Example 1 was added to the culture solution instead of the sample. Then, the lactate concentration in each sample was measured in the same manner as in Example 6. Each of the four cells was used for a total of four experiments.

Male mice of ICR strain = test: Blood glucose level of mice after oral glucose load with the drug; format: in vivo, mouse; settings: drug 50 mg/kg + glucose 2000 mg/kg oral
Method: As a drug, 2-amino-1-phenylethanol was used. First, glucose (KANTO CHEMICAL CO., INC.) was dissolved in water for injection so as to achieve a concentration of 200 mg/ml, thereby preparing a glucose solution. Next, the drug was dissolved in the water for injection, and then the glucose solution was added thereto so that the drug and glucose had final concentrations of 2.5 mg/ml and 100 mg/ml, respectively, thereby preparing a sample. As a control of the drug, the culture was performed in the same manner except that 100 mg/ml glucose solution to which the drug was not added was used instead of the sample.
Male mice of 6-week-old ICR strain were purchased from Japan SLC, Inc., and preliminary rearing was carried out for about 1 week to check there was no abnormality in performance status. The conditions for the preliminary rearing were as follows: 4 mice each were housed in a polycarbonate cage, room temperature was 23° C.±3° C., and illumination time was 12 hours/day. Diets (mice and rat chow, product of Nosan Corporation) and drinking water (tap water) were freely ingested.
After the preliminary rearing, the mice were fasted for about 21 hours, and then body weight and blood glucose levels were measured. The mice were divided into the total of two groups, namely, a test group and a control group to ensure that there was no variation in blood glucose levels between the groups. The number of animals in each group was eight.
After the grouping, mice of the test group and the control group were orally administered a single dose of the sample and the control, respectively, using a gastric sonde to a dose volume of 20 ml/kg. That is, the test group mice were administered the drug and glucose at doses of 50 mg/kg and 2000 mg/kg, respectively, and the control group mice were administered glucose at a dose of 2000 mg/kg. With the time of the administration being regarded as 0 minutes, the blood glucose level was measured at 30 minutes, 60 minutes, 90 minutes, and 120 minutes. The blood glucose level was measured by using an ACCU-CHEK Aviva (Roche Diagnostics K.K.), blood was collected by inserting an injection needle into the tip of the tail, and the blood glucose level was measured for the collected blood.
As to the blood glucose levels at 0 minutes, 30 minutes, 60 minutes, 90 minutes and 120 minutes, the test group and the control group were compared by t-test. The significance levels were 5% and 1%.
In addition, the area under the curves (AUCs) were calculated for the measured blood glucose levels. The AUC was calculated by calculating the area surrounded by the measurement curve and a straight line parallel to the time axis and passing through the measured value at the time of administration in the graph with the measured value on the vertical axis and the time on the horizontal axis. Then, the test group and the control group were compared by t-test for AUC in the same manner as the comparison for the blood glucose level.

[2] = test system: rat-derived liver cancer cells (Ry121B, subculture line); settings: drug 1 mg/ml, control = 100
Method: After the addition of the drug, the glucose concentration of each of the culture solutions was measured immediately after the start of the culture and after the completion of the culture. The glucose concentration was measured using a glucose assay kit (Waco). Then, the glucose concentration after the completion of the culture was divided by the glucose concentration immediately after the start of the culture (5.6 mmol per liter) to calculate the glucose consumption.

[3] = test system: rat-derived liver cancer cells (Ry121B, subculture line); test: Lactate concentration in culture solution of liver cancer cells (relative value, control = 100); format: cell-based; settings: drug 1 mg/ml, control = 100 (FIG. 7B)
Method: First, samples of 2-amino-1-cyclohexylethanol and 2-amino-1-phenylethanol were prepared in the same manner as in Example 1. The fibroblasts and the liver cancer cells were cultured under the same conditions as in Examples 1 and 5. […] As a control, the culture was performed in the same manner except that distilled water to which the drug was not added was added to the culture solution instead of the sample.
as §1

In the case of `NCC(O)c1ccccc1` (stereo not shown) [2-amino-1-phenylethanol], the “lactate concentration in the culture solution compared to control 1” value [1] is reported as “equivalent to that of control 1”, the “AUC Calculated value (blood glucose)” value (Male mice of ICR strain; individual mice, 0-120 minutes above value at administration) is reported as 173 mg/dL·h and 142 mg/dL·h (2×) and 177 mg/dL·h and 171 mg/dL·h and 132 mg/dL·h and 127 mg/dL·h and 258 mg/dL·h and the blood glucose level (Male mice of ICR strain; individual mice, 0 minutes (time of administration)) is reported as 46 mg/dL and 53 mg/dL and 61 mg/dL and 70 mg/dL and 54 mg/dL and 60 mg/dL and 86 mg/dL and 59 mg/dL. For the same compound, the blood glucose level (Male mice of ICR strain; individual mice, 30 minutes post-administration) was 177 mg/dL and 194 mg/dL (2×) and 222 mg/dL and 165 mg/dL and 202 mg/dL and 219 mg/dL and 256 mg/dL, the blood glucose level (Male mice of ICR strain; individual mice, 60 minutes post-administration) was 151 mg/dL and 136 mg/dL (2×) and 180 mg/dL and 171 mg/dL and 141 mg/dL and 160 mg/dL and 223 mg/dL and the blood glucose level (Male mice of ICR strain; individual mice, 90 minutes post-administration) was 121 mg/dL and 93 mg/dL and 138 mg/dL (2×) and 117 mg/dL and 91 mg/dL and 120 mg/dL and 176 mg/dL. The blood glucose level (Male mice of ICR strain; individual mice, 120 minutes post-administration) was 116 mg/dL and 91 mg/dL and 112 mg/dL and 113 mg/dL and 108 mg/dL and 79 mg/dL and 111 mg/dL and 134 mg/dL, the “AUC Mean value ± Standard error (blood glucose)” value (Male mice of ICR strain; test group No. 1 to No. 8) was 165 ± 15 mg·h/dL and the “relative value of glucose consumption” value [2] was “about 140”. For the same compound, the “relative value of lactate concentration” value [3] was “about 135”.
